Data: article PMC12051030, “Identification of inhibitors of the Salmonella FraB deglycase, a drug target” (FEBS Open Bio, 2025)
Read-outs that look alike come from different tables or passages of the source.

Molecular target: His6‐FraB (Salmonella FraB deglycase) (Salmonella enterica subsp. enterica serovar Typhimurium, UniProt Q8ZLD0)
Assay: FraB-G6PD coupled assay, Michaelis–Menten analysis for K I and mode of inhibition
Format: biochemical
Conditions: for change of IC50 values with increasing [S]/K m: 'this trend' = IC50 does not vary with [S]/K m, change evident only from 0.2 to 1.6× [S]/K m; for slope in plots of 1/IC50 vs. v o/V max: Fig. S12; for K IU/K IC ratio: average (±SE), from 1/IC50 versus v o/V max plots; for mode of inhibition: kinetic analyses (Lineweaver‐Burk, α′ vs [I], IC50 vs [S]/K m, 1/IC50 vs v o/V max)
Protocol: To determine the K I of each inhibitor, 29 μL of master mix was added to two rows of a 384‐well Greiner plate, using a single‐channel pipette, and incubated at 20 °C for 20 min. A 12‐channel pipette was then used to transfer and mix 1 μL of varying [6‐P‐F‐Asp] to all 48 wells. The final reaction (30 μL) consisted of 25 mM HEPES pH 8.0 at 20 °C, 5 mM MgCl2, 0.1 mM EGTA, 0.5 mM NAD^+, 1 mU G6PD, 100 nM His6‐FraB, varying (6‐P‐F‐Asp) (between 8 and 12 concentrations), and varying [inhibitor] (between three and five concentrations) in 10% (v/v) DMSO. NADH fluorescence was monitored every 10 s for 10 min total on a SPARK® multi‐mode multiplate reader (Tecan), as described above, and plotted against time. Slopes of the linear range of each curve were converted to initial velocities, as described above, that were then plotted against [6‐P‐F‐Asp]. A hyperbolic curve was then fitted to the data to obtain the k cat and K m values according to the formula: v o = (V max × [S])/(K m + [S]).
To determine the correlation between the observed and expected initial velocities (Fig. S5A), these values were exported from Kaleidagraph, plotted against one another, and a curve was fit using the formula: y = mx + b. The differences between observed and expected initial velocities (residuals) were then depicted as box‐and‐whisker plots (Fig. S5B). Lineweaver‐Burk plots were generated by graphing 1/v o versus 1/[S] and curves were fit to the data with Kaleidagraph using the formula: 1/v o = (Km/V max).(1/[S]) + (1/V max). The k cat and K m parameters were then converted into α′ values by dividing the k cat of the control (no inhibitor) by either itself (α′= 1) or the k cat of test samples with variable [inhibitor]. Those α′ values were plotted against [inhibitor] and K I values were determined from the equation α = 1 + [I]/K I.
The initial velocities used to generate the Michaelis–Menten plots were also employed to obtain the IC50 vs [S]/K m plots. For a given [S], initial velocities were converted into relative activities and plotted versus [inhibitor]. […] The IC50 values determined from the IC50 vs [S]/K m plots were then used to plot 1/IC50 versus v o/V max. A curve was fit to the data using the formula: y = mx + b. The Y‐intercept of the 1/IC50 versus v o/V max plot is equal to 1/K IC, and the slope, for mixed inhibitors, is equal to 1/K IU – 1/K IC. […] Data analyses were performed as described above (see Tables S1–S7 for curve‐fit errors and goodness‐of‐fit values).

[1] = Trial 1, 6-P-F-Asp 7.38 µM, S/Km 0.175714, unit from Fig. S11 axis, read-out: IC50 (IC50 versus [S]/Km plots)
[2] = Trial 1, 6-P-F-Asp 15.7 µM, S/Km 0.37381, unit from Fig. S11 axis, read-out: IC50 (IC50 versus [S]/Km plots)
[3] = Trial 1, 6-P-F-Asp 31.3 µM, S/Km 0.745238, unit from Fig. S11 axis, read-out: IC50 (IC50 versus [S]/Km plots)
[4] = Trial 1, 6-P-F-Asp 62.5 µM, S/Km 1.488095, unit from Fig. S11 axis, read-out: IC50 (IC50 versus [S]/Km plots)
[5] = Trial 1, 6-P-F-Asp 125 µM, S/Km 2.97619, unit from Fig. S11 axis, read-out: IC50 (IC50 versus [S]/Km plots)
[6] = Trial 1, 6-P-F-Asp 250 µM, S/Km 5.952381, unit from Fig. S11 axis, read-out: IC50 (IC50 versus [S]/Km plots)
[7] = Trial 1, 6-P-F-Asp 500 µM, S/Km 11.90476, unit from Fig. S11 axis, read-out: IC50 (IC50 versus [S]/Km plots)
[8] = Trial 1, 6-P-F-Asp 750 µM, S/Km 17.85714, unit from Fig. S11 axis, read-out: IC50 (IC50 versus [S]/Km plots)
[9] = Trial 1, 6-P-F-Asp 1000 µM, S/Km 23.80952, unit from Fig. S11 axis, read-out: IC50 (IC50 versus [S]/Km plots)
[10] = Trial 1, 6-P-F-Asp 2000 µM, S/Km 47.61905, unit from Fig. S11 axis, read-out: IC50 (IC50 versus [S]/Km plots)
[11] = Trial 1, 6-P-F-Asp 3000 µM, S/Km 71.42857, unit from Fig. S11 axis, read-out: IC50 (IC50 versus [S]/Km plots)
[12] = Trial 2, 6-P-F-Asp 7.38 µM, S/Km 0.175714, unit from Fig. S11 axis, read-out: IC50 (IC50 versus [S]/Km plots)
[13] = Trial 2, 6-P-F-Asp 15.7 µM, S/Km 0.37381, unit from Fig. S11 axis, read-out: IC50 (IC50 versus [S]/Km plots)
[14] = Trial 2, 6-P-F-Asp 31.3 µM, S/Km 0.745238, unit from Fig. S11 axis, read-out: IC50 (IC50 versus [S]/Km plots)
[15] = Trial 2, 6-P-F-Asp 62.5 µM, S/Km 1.488095, unit from Fig. S11 axis, read-out: IC50 (IC50 versus [S]/Km plots)
[16] = Trial 2, 6-P-F-Asp 125 µM, S/Km 2.97619, unit from Fig. S11 axis, read-out: IC50 (IC50 versus [S]/Km plots)
[17] = Trial 2, 6-P-F-Asp 250 µM, S/Km 5.952381, unit from Fig. S11 axis, read-out: IC50 (IC50 versus [S]/Km plots)
[18] = Trial 2, 6-P-F-Asp 500 µM, S/Km 11.90476, unit from Fig. S11 axis, read-out: IC50 (IC50 versus [S]/Km plots)
[19] = Trial 2, 6-P-F-Asp 750 µM, S/Km 17.85714, unit from Fig. S11 axis, read-out: IC50 (IC50 versus [S]/Km plots)
[20] = Trial 2, 6-P-F-Asp 1000 µM, S/Km 23.80952, unit from Fig. S11 axis, read-out: IC50 (IC50 versus [S]/Km plots)
[21] = Trial 2, 6-P-F-Asp 2000 µM, S/Km 47.61905, unit from Fig. S11 axis, read-out: IC50 (IC50 versus [S]/Km plots)
[22] = Trial 2, 6-P-F-Asp 3000 µM, S/Km 71.42857, unit from Fig. S11 axis, read-out: IC50 (IC50 versus [S]/Km plots)
[23] = from Michaelis–Menten analysis of FraB at different inhibitor concentrations, average and standard error from two measurements, read-out: K I

Chain of His6‐FraB (Salmonella FraB deglycase) (Q8ZLD0 entry or part of it): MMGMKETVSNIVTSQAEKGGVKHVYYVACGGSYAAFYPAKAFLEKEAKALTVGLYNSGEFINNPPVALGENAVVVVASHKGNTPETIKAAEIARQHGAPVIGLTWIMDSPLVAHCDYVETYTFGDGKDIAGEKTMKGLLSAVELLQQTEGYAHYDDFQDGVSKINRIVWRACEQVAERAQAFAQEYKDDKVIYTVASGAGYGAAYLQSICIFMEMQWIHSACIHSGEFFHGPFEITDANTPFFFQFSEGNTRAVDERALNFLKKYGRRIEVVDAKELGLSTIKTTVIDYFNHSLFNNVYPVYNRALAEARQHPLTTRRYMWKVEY

## O=c1[nH][nH]c(=S)n1Cc1ccccc1 [1533:K12, 4‐benzyl‐5‐sulfanylidene‐1,2,4‐triazolidin‐3‐one]
  change of IC50 values with increasing [S]/K m: modest decrease
  slope in plots of 1/IC50 vs. v o/V max: weakly positive
  K IU/K IC ratio: 0.75 ± 0.05
  mode of inhibition: mixed‐type uncompetitive
[1]
  IC50: 26.2 µM
[2]
  IC50: 24.1 µM
[3]
  IC50: 18.5 µM
[4]
  IC50: 18.3 µM
[5]
  IC50: 18.1 µM
[6]
  IC50: 19.6 µM
[7]
  IC50: 18.7 µM
[8]
  IC50: 20.1 µM
[9]
  IC50: 16.7 µM
[10]
  IC50: 18.6 µM
[11]
  IC50: 21.2 µM
[12]
  IC50: 24.9 µM
[13]
  IC50: 24.7 µM
[14]
  IC50: 26.5 µM
[15]
  IC50: 25.9 µM
[16]
  IC50: 24 µM
[17]
  IC50: 23.8 µM
[18]
  IC50: 21.8 µM
[19]
  IC50: 20.5 µM
[20]
  IC50: 21.1 µM
[21]
  IC50: 20.8 µM
[22]
  IC50: 20.7 µM
[23]
  Ki: 12 ± 1 µM
Independent trial shown in Fig. S11 panels A-L, read-out: KI from α′ vs [I] plot
  Ki: 13 µM
Single trial shown in Fig. 5, read-out: IC50, mean and standard deviation of all IC50 values in IC50 vs [S]/Km plot
  IC50: 23 ± 2 µM
Single trial shown in Fig. 5, read-out: KI from α′ vs [I] plot
  Ki: 11 µM

## O=c1sn(-c2ccccc2C(F)(F)F)c(=O)n1CC1CC1 [1524:G12, 4‐(cyclopropylmethyl)‐2‐[2‐(trifluoromethyl)phenyl]‐1,2,4‐thiadiazolidine‐3,5‐dione]
  change of IC50 values with increasing [S]/K m: exhibit this trend
  slope in plots of 1/IC50 vs. v o/V max: no
  K IU/K IC ratio: 0.9 ± 0.1
  mode of inhibition: pure noncompetitive inhibitors
[1]
  IC50: 1.08 µM
[2]
  IC50: 1.39 µM
[3]
  IC50: 1.54 µM
[4]
  IC50: 1.44 µM
[5]
  IC50: 1.55 µM
[6]
  IC50: 1.47 µM
[7]
  IC50: 1.59 µM
[8]
  IC50: 1.51 µM
[9]
  IC50: 1.36 µM
[10]
  IC50: 1.44 µM
[11]
  IC50: 1.65 µM
[12]
  IC50: 1.91 µM
[13]
  IC50: 1.49 µM
[14]
  IC50: 1.54 µM
[15]
  IC50: 1.64 µM
[16]
  IC50: 1.36 µM
[17]
  IC50: 1.27 µM
[18]
  IC50: 1.41 µM
[19]
  IC50: 1.42 µM
[20]
  IC50: 1.44 µM
[21]
  IC50: 1.37 µM
[22]
  IC50: 1.66 µM
[23]
  Ki: 1 µM

## Cc1cccc(Cl)c1-n1sc(=O)n(CC2CC2)c1=O [1524:E12, 2‐(2‐chloro‐6‐methylphenyl)‐4‐(cyclopropylmethyl)‐1,2,4‐thiadiazolidine‐3,5‐dione]
  change of IC50 values with increasing [S]/K m: exhibit this trend
  slope in plots of 1/IC50 vs. v o/V max: no
  K IU/K IC ratio: 0.95 ± 0.05
  mode of inhibition: pure noncompetitive inhibitors
[1]
  IC50: 5.182 µM
[2]
  IC50: 4.4596 µM
[3]
  IC50: 6.2505 µM
[4]
  IC50: 5.0417 µM
[5]
  IC50: 4.4301 µM
[6]
  IC50: 4.497 µM
[7]
  IC50: 4.5819 µM
[8]
  IC50: 4.2959 µM
[9]
  IC50: 4.7019 µM
[10]
  IC50: 4.852 µM
[11]
  IC50: 5.5036 µM
[12]
  IC50: 4.2249 µM
[13]
  IC50: 5.1146 µM
[14]
  IC50: 4.8438 µM
[15]
  IC50: 5.1187 µM
[16]
  IC50: 5.0178 µM
[17]
  IC50: 5.2509 µM
[18]
  IC50: 4.9663 µM
[19]
  IC50: 4.9173 µM
[20]
  IC50: 5.0782 µM
[21]
  IC50: 5.2035 µM
[22]
  IC50: 5.7824 µM
[23]
  Ki: 4 µM
Trial shown in Fig. S11 panels M-X
  IC50, mean and standard deviation of all IC50 values in IC50 vs [S]/Km plot: 5 ± 0.4 µM
Trial shown in Fig. S11 panels Y-AJ
  IC50, mean and standard deviation of all IC50 values in IC50 vs [S]/Km plot: 5 ± 0.6 µM
